Molecules are shown by their SMILES.

The values below come from patent US5376684A, “Aminoalkanephosphinic acids and salts thereof” (Ciba-Geigy Corporation, priority 1991, dated 1994).

One assay has as its system epileptic Wistar rats. The conditions noted are these: cited from earlier work.
The next assay relates to pyramidal cells. Description: Penicillin-induced "epileptic" hippocampus section preparation. It counts as cell-based. The following applies: concentration of 6 μM. Here is the method: The novel GABAB -antagonists according to the invention interact at the GABAB -receptor with IC50 values of approximately 10^-8 M (mol/l) and above in the corticocerebral membranes of rats. […] The antagonism towards baclofen can also be shown in vitro in electrophysiological models, for example in the penicillin-induced "epileptic" hippocampus section preparation in which baclofen in a concentration of 6 μM (micromol/liter) inhibits "epilepsy-like" discharges from pyramidal cells. The compounds according to the invention act as antagonists of baclofen action in concentrations of about 10 to about 100 μM (micromol/liter). In vivo the antagonism can be shown by ionto-phoresis of baclofen in rat cerebral cortex and by systemic use of antagonists in doses of from 10 to 100 mg/kg. In doses of about 30 mg/kg, antagonism occurs towards the muscle-relaxant action of baclofen, which is measured in the Rotarod model.

For the molecule `NC(=O)N1c2ccccc2C=Cc2ccccc21` [Carbamazepine], the “effect on spike and wave discharges / attacks” value in the assay on epileptic Wistar rats is “ineffective or worsen the attacks at higher doses”.
Take `CCC1(c2ccccc2)C(=O)NC(=O)NC1=O` [Phenobarbitone]: the “effect at 20 mg/kg” value in the assay on epileptic Wistar rats (20 mg/kg) is “ineffective”.
Consider `NCC(CC(=O)O)c1ccc(Cl)cc1` (centres unmarked) [baclofen], for which, in the assay on pyramidal cells, the “effect on "epilepsy-like" discharges from pyramidal cells” value is “inhibits”.
With `CN1C(=O)CN=C(c2ccccc2)c2cc(Cl)ccc21` [diazepam], the “doses that reduce the spike and wave discharges in dependence upon dosage” value in the assay on epileptic Wistar rats is given as not below 0.5 mg/kg.
Take `CCC1(C)CC(=O)NC1=O` (centres unmarked) [ethosuximide]: the “doses that reduce the spike and wave discharges in dependence upon dosage” value in the assay with epileptic Wistar rats was not below 25 mg/kg.
In the case of `O=C1NC(=O)C(c2ccccc2)(c2ccccc2)N1` [phenytoin], the “effect on spike and wave discharges / attacks” value in the assay on epileptic Wistar rats was “ineffective or worsen the attacks at higher doses”.
As for `CCCC(CCC)C(=O)[O-].[Na+]` [sodium valproate], in the assay on epileptic Wistar rats, the “doses that reduce the spike and wave discharges in dependence upon dosage” value was not below 50 mg/kg.
For `CN1C(=O)OC(C)(C)C1=O` [trimethadione], the “doses that reduce the spike and wave discharges in dependence upon dosage” value in the assay with epileptic Wistar rats is given as not below 50 mg/kg.
